Tests used:
Format in all cases: in vivo
[1] = system: pigweed (Amaranthus retroflexus); assay: Test A postemergence; details: Amaranthus retroflexus, post-emergence, 240 h, postemergence
Method in brief: (§1)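 Preemergence soil spray on seeded pots or post-emergence spray on 1–2 leaf plants, in loam–sand blend. Greenhouse ~10 d. Visual rating 0–100 against untreated plants.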

[2] = system: blackgrass (Alopecurus myosuroides); assay: Test A postemergence; details: Alopecurus myosuroides, post-emergence, 240 h, postemergence
Method in brief: as §1

[3] = system: ragweed (common ragweed, Ambrosia elatior); assay: Test A postemergence; details: Ambrosia artemisiifolia, post-emergence, 240 h, postemergence
Method in brief: as §1

[4] = system: barnyardgrass (Echinochloa crus-galli); assay: Test A postemergence; details: Echinochloa crus-galli, post-emergence, 240 h, postemergence
Method in brief: as §1

[5] = system: Kochia (Kochia scoparia); assay: Test A postemergence; details: Bassia scoparia, post-emergence, 240 h, postemergence
Method in brief: as §1

[6] = system: wheat (Triticum aestivum); assay: Test A postemergence; details: Triticum aestivum, post-emergence, 240 h, postemergence
Method in brief: as §1

[7] = system: corn (Zea mays); assay: Test A postemergence; details: Zea mays, post-emergence, 240 h, postemergence
Method in brief: as §1

[8] = system: Galium (catchweed bedstraw, Galium aparine); assay: Test A postemergence; details: Galium, post-emergence, 240 h, postemergence
Method in brief: as §1

[9] = system: ryegrass, Italian (Italian ryegrass, Lolium multiflorum); assay: Test A postemergence; details: Lolium multiflorum, post-emergence, 240 h, postemergence
Method in brief: as §1

[10] = system: pigweed (Amaranthus retroflexus); assay: Test A preemergence; details: Amaranthus retroflexus, pre-emergence, 240 h, preemergence, 0 to 100 scale where 0 is no effect and 100 is complete control, read-out: Pigweed plant response rating
[11] = system: giant foxtail (Setaria faberii); assay: Test A preemergence; details: Setaria faberi, pre-emergence, 240 h, preemergence, 0 to 100 scale where 0 is no effect and 100 is complete control, read-out: Foxtail, Giant plant response rating
Method in brief: as §1

[12] = system: ragweed (common ragweed, Ambrosia elatior); assay: Test A preemergence; details: Ambrosia artemisiifolia, pre-emergence, 240 h, preemergence, 0 to 100 scale where 0 is no effect and 100 is complete control, read-out: Ragweed plant response rating
Method in brief: as §1

[13] = system: barnyardgrass (Echinochloa crus-galli); assay: Test A preemergence; details: Echinochloa crus-galli, pre-emergence, 240 h, preemergence, 0 to 100 scale where 0 is no effect and 100 is complete control, read-out: Barnyardgrass plant response rating
Method in brief: as §1

[14] = system: Kochia (Kochia scoparia); assay: Test A preemergence; details: Bassia scoparia, pre-emergence, 240 h, preemergence, 0 to 100 scale where 0 is no effect and 100 is complete control, read-out: Kochia plant response rating
Method in brief: as §1

[15] = system: ryegrass, Italian (Italian ryegrass, Lolium multiflorum); assay: Test A preemergence; details: Lolium multiflorum, pre-emergence, 240 h, preemergence, 0 to 100 scale where 0 is no effect and 100 is complete control, read-out: Ryegrass, Italian plant response rating
Method in brief: as §1

`Cc1nc([C@H]2CNC(=O)[C@@H]2C(=O)Nc2cccc(F)c2F)cs1` [Compound 1180] gave a pest or weed control at 125 g/ha ([1]; 125 g ai/ha, visual injury vs untreated controls after approx. 10 d, 0 = no effect, 100 = complete control, read-out: Pigweed plant response rating (0 to 100 scale)) of 0%, a pest or weed control at 500 g/ha ([1]; 500 g ai/ha, 0 to 100 scale, 0 is no effect, 100 is complete control, read-out: Pigweed plant response rating) of 0% and a pest or weed control at 125 g/ha ([2]; 125 g ai/ha, visual injury vs untreated controls after approx. 10 d, 0 = no effect, 100 = complete control, read-out: Blackgrass plant response rating (0 to 100 scale)) of 0%. It also gave a pest or weed control at 500 g/ha ([2]; 500 g ai/ha, 0 to 100 scale, 0 is no effect, 100 is complete control, read-out: Blackgrass plant response rating) of 0%, a pest or weed control at 125 g/ha ([3]; 125 g ai/ha, visual injury vs untreated controls after approx. 10 d, 0 = no effect, 100 = complete control, read-out: Ragweed plant response rating (0 to 100 scale)) of 0% and a pest or weed control at 500 g/ha ([3]; 500 g ai/ha, 0 to 100 scale, 0 is no effect, 100 is complete control, read-out: Ragweed plant response rating) of 0%. For the same compound, the pest or weed control at 125 g/ha ([4]; 125 g ai/ha, visual injury vs untreated controls after approx. 10 d, 0 = no effect, 100 = complete control, read-out: Barnyardgrass plant response rating (0 to 100 scale)) was 0%, the pest or weed control at 500 g/ha ([4]; 500 g ai/ha, 0 to 100 scale, 0 is no effect, 100 is complete control, read-out: Barnyardgrass plant response rating) was 0% and the pest or weed control at 125 g/ha ([5]; 125 g ai/ha, visual injury vs untreated controls after approx. 10 d, 0 = no effect, 100 = complete control, read-out: Kochia plant response rating (0 to 100 scale)) was 0%. For the same compound, the pest or weed control at 500 g/ha ([5]; 500 g ai/ha, 0 to 100 scale, 0 is no effect, 100 is complete control, read-out: Kochia plant response rating) was 0%, the plant injury at 125 g/ha ([6]; 125 g ai/ha, visual injury vs untreated controls after approx. 10 d, 0 = no effect, 100 = complete control, read-out: Wheat plant response rating (0 to 100 scale)) was 0% and the plant injury at 500 g/ha ([6]; 500 g ai/ha, 0 to 100 scale, 0 is no effect, 100 is complete control, read-out: Wheat plant response rating) was 0%. It also gave a plant injury at 125 g/ha ([7]; 125 g ai/ha, visual injury vs untreated controls after approx. 10 d, 0 = no effect, 100 = complete control, read-out: Corn plant response rating (0 to 100 scale)) of 0%, a plant injury at 500 g/ha ([7]; 500 g ai/ha, 0 to 100 scale, 0 is no effect, 100 is complete control, read-out: Corn plant response rating) of 0% and a pest or weed control at 125 g/ha ([8]; 125 g ai/ha, visual injury vs untreated controls after approx. 10 d, 0 = no effect, 100 = complete control, read-out: Galium plant response rating (0 to 100 scale)) of 0%. The pest or weed control at 500 g/ha ([8]; 500 g ai/ha, 0 to 100 scale, 0 is no effect, 100 is complete control, read-out: Galium plant response rating) was 0%, the pest or weed control at 125 g/ha ([9]; 125 g ai/ha, visual injury vs untreated controls after approx. 10 d, 0 = no effect, 100 = complete control, read-out: Ryegrass, Italian plant response rating (0 to 100 scale)) was 0% and the pest or weed control at 500 g/ha ([9]; 500 g ai/ha, 0 to 100 scale, 0 is no effect, 100 is complete control, read-out: Ryegrass, Italian plant response rating) was 0%. The pest or weed control at 125 g/ha ([10]; 125 g ai/ha, approx. 10 d) was 0%, the pest or weed control at 500 g/ha ([10]; 500 g ai/ha) was 0% and the pest or weed control at 125 g/ha ([11]; 125 g ai/ha, approx. 10 d) was 0%. It also gave a pest or weed control at 500 g/ha ([11]; 500 g ai/ha) of 50%, a pest or weed control at 125 g/ha ([12]; 125 g ai/ha, approx. 10 d) of 0% and a pest or weed control at 500 g/ha ([12]; 500 g ai/ha) of 0%. It also gave a pest or weed control at 125 g/ha ([13]; 125 g ai/ha, approx. 10 d) of 20%, a pest or weed control at 500 g/ha ([13]; 500 g ai/ha) of 70% and a pest or weed control at 125 g/ha ([14]; 125 g ai/ha, approx. 10 d) of 0%. It also gave a pest or weed control at 500 g/ha ([14]; 500 g ai/ha) of 30%, a pest or weed control at 125 g/ha ([15]; 125 g ai/ha, approx. 10 d) of 0% and a pest or weed control at 500 g/ha ([15]; 500 g ai/ha) of 0%.

From patent US12077503B2, “Substituted cyclic amides and their use as herbicides” (FMC CORPORATION, priority 2015, dated 2024)
